The term half-life denotes the time needed for the level to fall by half in the phase considered. Read a low half-life as fast loss.

Molecules are shown by their SMILES.

The source of these data is patent US8735624B2, “Polymorphic form of CHDMAPP, method of preparation thereof, and pharmaceutical composition comprising same” (Innate Pharma, priority 2008, dated 2014).

Series [1] in a line: solid phase stability on storage (XRPD). It counts as physicochemical. The following applies: for crystalline structure after storage (XRPD): stored 3 months at 40° C., 75% RH. The procedure:
X-Ray Powder Diffraction measurements were carried out by using a SIEMENS D5005 diffractometer (Bruker analytical X-Ray Systems, D-76187 Karlsruhe, Germany) with a Bragg Brentano geometry, in theta-theta reflection mode. The instrument is equipped with a X-Ray tube (copper anticathode, 40 kV, 30 mA, Kα1 radiation: 1.5406 Å, Kα2 radiation: 1.5444 Å), a nickel filter and a scintillation detector. The diffraction patterns were collected by steps of 0.04° (2-theta) over the angular range 3°-30°, with a counting time of 4 s per step. No internal standard was used but a sample of quartz was analyzed as an external standard. The temperature of the sample was either the room temperature or accurately monitored when heating was required. DIFFRAC PLUS Edit Job software (v. 2.00) was used as control software and data processing was performed by using the Eva software (v. 9.0 and v. 10.0).

Series [2] in a line: DVS hygroscopicity and moisture measurements. As to conditions: result in words. The class given is physicochemical. The protocol: Moisture sorption isotherms of the crystalline phases were obtained by using a DVS-1 automated water sorption analyzer (Surface Measurements Systems, Alperton, Middlesex, United Kingdom). The reference material was an empty glass pan and the total gas flow was 200 sccm.min^−1 (Standard Cubic Centimeters per minute). Temperature of analysis was 20° C. For each measurement, precisely ca. 15 mg of the sample were weighed in a glass pan beforehand allowed for the tare, then placed in the analyzer.
As a first stage, dry nitrogen (0% R.H) was applied until constant weight of the sample in order to eliminate adsorbed or absorbed water (potential dehydration). Then, mass variations were recorded while R.H. was increased by steps of 10% R.H. The automated analyzer was allowed to start the following step as soon as the mass variation of the sample was less than 5.10^−4 mg.min^−1. The upper limit was adjusted below the deliquescence of the compound and never exceeded 90% R.H.
DVSWin (v 2.18) was used as control and data collection software whereas data processing was performed by using DVS Standard Analysis Suite (v 4.3).
Further parameters used in DVS procedures are as follows:
Protocole Dynamic Vapor Sorption/Appareil ‘Surface Measurements Systems)=
Automated Water Sorption Analyzer’/model: DVS−1
Analysis method: • step mode, • Temperature: 20° C. • step dm/dt<0.0005 (mg/min) • First stage R.H.=0% • Last Stage R.H.=90% • Minimum Stage: 20 min • Maximum Stage: 120 min • Total Gas Flow: 200 • Nitrogen: 200 Bars, H2O<3 ppm, O2<2 ppm, Réf. Nitrogen N50 B50*0 Software—data collection and data processing: • DVSWin v2.18 (control software), • DVS Standard Analysis Suite v4.3 (analysis software).]

The nature of series [3]: pKa of the acidic functions. It counts as physicochemical. The source says: Each of these acidic functions can be coupled with a cation. Therefore, three stoichiometries of sodium salts of CHDMAPP may be prepared: A monosodium salt, a disodium salt and a trisodium salt.
A short description of series [4]: stability of CHDMAPP in solution in water. The class given is physicochemical. The following applies: in solution in water at 5% in weight, 55° C. The text has this:
The crystalline phase thus provides a dramatic improvement of the stability and of the storage capabilities of the drug product.

Series [5] has as its system γδ T cells. The following applies: activator of γδ T cells; times higher than BrHPP; cited from earlier work.
Series [6] in a line: TG/DSC thermal stability. The class given is physicochemical. As to conditions: TGA-DSC. The procedure: The stability range was assessed using Differential Scanning calorimetry (DSC), using a Netzsch STA 449C apparatus, as is described in detail hereinafter, and having a standard deviation of ±0.5° C. The person skilled in the art will appreciate that alternative readings of the melting point may result from the use of other types of DSC equipment and/or the use of other system under conditions different to those described below.
TG/DSC measurements were carried out by using a NETZSCH STA 449C Jupiter Thermogravimetric Analyzer (NETZSCH, D-95100 Selb, Germany) equipped with a low temperature furnace. The purge gas used was helium (gas flow=50 mL/min) and the reference material was an empty aluminum pan without cap. The samples were weighed in open aluminum pans, and then placed in the analyzer. The analyses were performed within various temperature ranges using a 2°.min^−1 heating rate. PROTEUS software was used for the acquisition and data processing (v. 4.7.0).
For orientation: In DSC, transitions show as peaks or steps in heat flow.

The nature of series [7]: ICH stability testing (chemical purity by HPAEC). It counts as physicochemical. The following applies: closed glass vials. The procedure: The chemical purity of phosphoesters (including the isomeric purity for geometric isomers) is determined using High Performance Anion-Exchange Chromatography (HPAEC) with suppressed conductivity detection. The HPAEC device comprises a DIONEX DX600 system (DIONEX Corporation, Sunnyvale Calif., USA) connected to computer loaded with DIONEX Chromeleon® chromatography software. A DIONEX CD25 conductivity detector is used with an anion self regenerating suppressor (ASRS®-ultra II-4 mm), which is set to either auto-suppression mode or external water mode. The HPAEC column used is a DIONEX Ion Pac® AS11 column (4×250 mm) equipped with an AG11 guard column (4×50 mm). In this procedure, phosphoesters are eluted (as anionic form) from the anion exchange column with a sodium or potassium hydroxide step gradient.
Stability tests of CHDMAPP-Na2,1H2O have been conducted according to ICH guideline Q7a, Section 19.11, under various storage conditions: 5° C., and 25° C./60% RH, both in closed glass vials. Purity has been assessed at regular time intervals (t0, 1, 3, 6 and 9 months) by HPAEC using a Dionex Ion Pac AS11, 4.0×250 mm column and a Dionex Ion Pac AG11, […] and by eluting with a gradient of water and NaOH solution.

`C/C(=C\CCP(=O)([O-])OP(=O)(O)O)CO.C/C(=C\CCP(=O)([O-])OP(=O)(O)O)CO.[Na+].[Na+]` [CHDMAPP-Na2,0H2O, anhydrous (2E)-1-hydroxy-2-methylpent-2-enyl-pyrophosphonate disodium]: in series [1], the “crystalline structure after storage (XRPD)” value was “completely modified”. In addition, the hygroscopicity result in series [2] is listed as “hygroscopic”; in series [2] (listed as anhydrous salt), “somewhat hygroscopic”.
On to `CC(=CCCP(=O)([O-])OP(=O)([O-])[O-])CO.[Na+].[Na+].[Na+]` [trisodium], for which the hygroscopicity entry in series [2] was “very hygroscopic solid”.
With `C/C(=C\CCP(=O)(O)OP(=O)(O)O)CO` [CHDMAPP, (2E)-1-hydroxy-2-methylpent-2-enyl-pyrophosphonate], the “pKa of the weak acidic function” value in series [3] (one function, weak pKa) was 7.1. Moreover, in series [3] (two functions, strong pKa), the “pKa of the two strong acidic functions” value came out at 2.1. For the same compound, the half-life in series [4] was found to be 62.4 h. For the same compound, the “in vitro activity relative to BrHPP (Phosphostim)” value in series [5] is on record as “approximately 100 times”.
Turning to `C/C(=C\CCP(=O)(O)OP(=O)(O)O)CO` [CHDMAPP-Na2,1H2O, (2E)-1-hydroxy-2-methylpent-2-enyl-pyrophosphonate disodium monohydrate], the “temperature up to which compound is stable (onset of endothermic dehydration peak)” value worked out at 115 °C in series [6] (listed as monohydrate disodium salt) and 115.7 °C in series [6] (disodium monohydrate). Moreover, the Purity came to 99.1% in series [7] (storage 5° C., 1 month); 99.2% in series [7] (storage 5° C., 3 months); 98.8% in series [7] (storage 5° C., 6 months); 98.9% in series [7] (storage 5° C., 9 months); 99.3% in series [7] (storage 5° C., t 0); 99.2% in series [7] (storage 25° C./60% R.H., 1 month). Further, the Purity was 99.1% in series [7] (storage 25° C./60% R.H., 3 months); 98.7% in series [7] (storage 25° C./60% R.H., 6 months); 98.9% in series [7] (storage 25° C./60% R.H., 9 months); 99.3% in series [7] (storage 25° C./60% R.H., t 0). In series [1] (after more than 6 months, 25° C., 60% RH), the “spontaneous phase transformation on storage” value is reported as “does not observe any spontaneous phase transformation”. Moreover, in series [1], the “crystalline structure after storage (XRPD)” value is on record as “has not been modified”. The hygroscopicity result in series [2] is “great non-hygroscopicity”.
